Data set [1] concerns the target T1, Plasmodium falciparum tyrosyl-tRNA synthetase (PfTyrRS) (Plasmodium falciparum, UniProt Q8IAR7).
T1 construct: gene PF3D7_0807900; recombinant PfTyrRS (PF3D7-0807900), C-terminal 10 × His tag, ~47 kDa, homodimer
In words: bio-layer interferometry (Ni-NTA biosensors, immobilized PfTyrRS); supported by ATP hydrolysis inhibition (IC50 […]), TSA and limited proteolysis. Format: binding.

Data set [2] has as its target T2, Homo sapiens tyrosyl-tRNA synthetase (HsTyrRS) (Homo sapiens, UniProt P54577).
T2 construct: gene YARS1; recombinant HsTyrRS, C-terminal 10 × His tag, ~64 kDa, homodimer
T2 sequence (P54577 1-528): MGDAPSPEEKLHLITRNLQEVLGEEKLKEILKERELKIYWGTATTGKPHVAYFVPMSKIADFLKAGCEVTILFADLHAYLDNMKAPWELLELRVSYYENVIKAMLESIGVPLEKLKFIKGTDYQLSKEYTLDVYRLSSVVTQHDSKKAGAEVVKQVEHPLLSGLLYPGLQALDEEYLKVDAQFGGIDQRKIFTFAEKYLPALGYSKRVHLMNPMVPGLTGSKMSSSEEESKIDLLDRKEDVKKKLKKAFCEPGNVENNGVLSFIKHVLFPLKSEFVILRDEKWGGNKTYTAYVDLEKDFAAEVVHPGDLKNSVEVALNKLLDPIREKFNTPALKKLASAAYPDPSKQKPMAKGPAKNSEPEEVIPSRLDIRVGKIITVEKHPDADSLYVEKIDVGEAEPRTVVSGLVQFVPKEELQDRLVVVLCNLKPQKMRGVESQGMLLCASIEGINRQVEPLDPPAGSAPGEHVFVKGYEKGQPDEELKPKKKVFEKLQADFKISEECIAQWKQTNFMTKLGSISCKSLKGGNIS
In words: ATP hydrolysis (consumption) assay, luciferin/luciferase luminescence, purified enzyme. It counts as biochemical.

Data set [3] deals with the molecule itself. In words: SEC; Superdex 200 Increase 10/300 GL, final purification step; oligomeric state from the apparent molecular weight at the elution volume. On the technique in general: SEC sorts molecules by how far they enter the pores of the column.

The values that follow come from paper PMC11084299 (International Journal of Molecular Sciences, 2024).

For orientation: Kd means the free concentration of one partner at which half of the binding sites on the other are occupied at equilibrium, for simple one-to-one binding. A high value points to a looser complex. One may read the IC50 as the concentration at which inhibition is half-maximal. A higher IC50 goes with a need for much substance. The molecule `O=C(/C=C/c1ccc(O)c(O)c1)c1ccc(O)c(O)c1O` [okanin] showed a Kd in data set [1] of 0.29 µM. Besides, in data set [2], the IC50 was 38.2 ± 2.71 µM.

B1: Homo sapiens tyrosyl-tRNA synthetase (enzyme, UniProt P54577 1-528, looked up)
chain: T2 sequence (P54577 1-528)
notes: Tyrosyl-tRNA synthetase, human, in pET28a; about 64 kDa on SDS-PAGE; No tag cleavage is described; also called HsTyrRS; HsTysRS; source: E. coli, purified (Ni column, ion exchange Q HP, size exclusion chromatography)
A word on the stoichiometry N: it is a count of units in the complex or per binding partner. Turning to B1, the “stoichiometry N” value in data set [3] is 2.

B2: Plasmodium falciparum tyrosyl-tRNA synthetase (enzyme, UniProt Q8IAR7 1-373, looked up)
chain: METTDTKREEQEIEEKKAQEESKIEDVDKILNDILSISSECIQPDELRVKLLLKRKLICYDGFEPSGRMHIAQGLLKSIIVNKLTSNGCTFIFWIADWFAHLNNKMSGDLKKIKKVGSYFIEVWKSCGMNMENVQFLWASEEINKKPNEYWSLVLDISRSFNINRMKRCLKIMGRSEGEENYCSQILYPCMQCADIFFLNVDICQLGIDQRKVNMLAREYCDIKKIKKKPVILSHGMLPGLLEGQEKMSKSDENSAIFMDDSESDVNRKIKKAYCPPNVIENNPIYAYAKSIIFPSYNEFNLVRKEKNGGDKTYYTLQELEHDYVNGFIHPLDLKDNVAMYINKLLQPVRDHFQNNIEAKNLLNEIKKYKVTK
notes: Tyrosyl-tRNA synthetase of Plasmodium falciparum, gene ID PF3D7-0807900, synthesized gene in pET28a; about 47 kDa on SDS-PAGE; No tag cleavage is described; The same protein was later captured on Ni-NTA biosensors for BLI with okanin, so the His tag was probably still present in the gel filtration; also called PfTyrRS; PfTysRS; source: E. coli BL21, purified (Ni-NTA, HiTrap Q HP, Superdex 200 …)
Turning to B2, in data set [3], the “stoichiometry N” value worked out at 2.
